# Values of other authors, collected in patent US5773459A, “Urea- and thiourea-type compounds” (Sugen, Inc., priority 1995, dated 1998).
# Legend:
# [1] = test system: IGF-1R protein tyrosine kinase; details: Sepp-Lorenzino et al., Abstract, 1994; cited from earlier work
# [2] = test system: human breast cancer cells; details: Sepp-Lorenzino et al., Abstract, 1994; cited from earlier work
smiles,measurement,setting,value
CO[C@H]1[C@@H](OC)C[C@H](C)[C@@H](OC)C2=CC(=O)C=C(NC(=O)/C(C)=C/C=C\[C@H](OC)[C@@H](OC(N)=O)/C(C)=C/[C@@H]1C)C2=O [Herbimycin A],inhibition of the IGF-1R protein tyrosine kinase,[1],inhibit
same,inhibition of cellular proliferation in human breast cancer cells,[2],inhibit
